Assay results published in patent publication US11051515B2, “3-acyl-benzamides and their use as herbicides” (Bayer Aktiengesellschaft, priority 2017, dated 2021).

Assays:
[1] = test system: MATIN; assay: Pre-emergence action against MATIN; format: in vivo, Matricaria inodora; details: Tripleurospermum inodorum, 504 h; Dosage 320 g/ha, pre-emergence
How it was run: (§1)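 Seeds sown in sandy loam in wood-fiber pots and covered with soil. Greenhouse growth; visual damage scored after 3 weeks versus untreated controls (100% = dead, 0% = like control).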

[2] = test system: STEME; assay: Pre-emergence action against STEME; format: in vivo, Stellaria media; details: Stellaria media, 504 h; Dosage 320 g/ha, pre-emergence
How it was run: as §1

[3] = test system: VIOTR; assay: Pre-emergence action against VIOTR; format: in vivo, Viola tricolor; details: Viola tricolor, 504 h; Dosage 320 g/ha, pre-emergence
How it was run: as §1

[4] = test system: CYPES; assay: Post-emergence action against CYPES; format: in vivo, Cyperus esculentus; details: Cyperus esculentus, 504 h; post-emergence, dosage 80 g/ha, visual assessment about 3 weeks after treatment vs untreated controls; read-out: Post-emergence action against CYPES (herbicidal action in percent)
How it was run: (§2)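 Post-emergence foliar spray on greenhouse plants at the one-leaf stage, using wettable-powder or emulsion-concentrate formulations in water (600 to […], plus 0.2% wetting agent). Damage scored by eye roughly 3 weeks later against untreated plants: 0% = like control, 100% = dead.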

[5] = test system: ECHCG; assay: Pre-emergence action against ECHCG; format: in vivo, Echinochloa crus-galli; details: Echinochloa crus-galli, 504 h; pre-emergence, dosage 320 g/ha, scored visually after 3 weeks vs untreated controls; read-out: Pre-emergence action against ECHCG (herbicidal activity)
How it was run: as §1

[6] = test system: STEME; assay: Post-emergence action against STEME; format: in vivo, Stellaria media; details: Stellaria media, 504 h; post-emergence, dosage 80 g/ha
How it was run: as §2

[7] = test system: ABUTH; assay: Pre-emergence action against ABUTH; format: in vivo, Abutilon theophrasti; details: Abutilon theophrasti, 504 h; pre-emergence, dosage 320 g/ha, scored visually after 3 weeks vs untreated controls; read-out: Pre-emergence action against ABUTH (herbicidal activity)
How it was run: as §1

[8] = test system: AMARE; assay: Pre-emergence action against AMARE; format: in vivo, Amaranthus retroflexus; details: Amaranthus retroflexus, 504 h; pre-emergence, dosage 320 g/ha, scored visually after 3 weeks vs untreated controls; read-out: Pre-emergence action against AMARE (herbicidal activity)
How it was run: as §1

[9] = test system: ABUTH; assay: Post-emergence action against ABUTH; format: in vivo, Abutilon theophrasti; details: Abutilon theophrasti, 504 h; post-emergence, dosage 80 g/ha, visual assessment about 3 weeks after treatment vs untreated controls; read-out: Post-emergence action against ABUTH (herbicidal action in percent)
How it was run: as §2

[10] = test system: AMARE; assay: Post-emergence action against AMARE; format: in vivo, Amaranthus retroflexus; details: Amaranthus retroflexus, 504 h; post-emergence, dosage 80 g/ha, visual assessment about 3 weeks after treatment vs untreated controls; read-out: Post-emergence action against AMARE (herbicidal action in percent)
How it was run: as §2

[11] = test system: POLCO; assay: Post-emergence action against POLCO; format: in vivo, Polygonum convolvulus; details: Fallopia convolvulus, 504 h; post-emergence, dosage 80 g/ha
How it was run: as §2

[12] = test system: VERPE; assay: Post-emergence action against VERPE; format: in vivo, Veronica persica; details: Veronica persica, 504 h, dosage 80 g/ha
How it was run: as §2

[13] = test system: VERPE; assay: Pre-emergence action against VERPE; format: in vivo, Veronica persica; details: Veronica persica, 504 h; Dosage 320 g/ha, pre-emergence
How it was run: as §1

[14] = test system: SETVI; assay: Post-emergence action against SETVI; format: in vivo, Setaria viridis; details: Setaria viridis, 504 h; post-emergence, dosage 80 g/ha, visual assessment about 3 weeks after treatment vs untreated controls; read-out: Post-emergence action against SETVI (herbicidal action in percent)
How it was run: as §2

[15] = test system: AVEFA; assay: Post-emergence action against AVEFA; format: in vivo, Avena fatua; details: Avena fatua, 504 h; post-emergence, dosage 80 g/ha, visual assessment about 3 weeks after treatment vs untreated controls; read-out: Post-emergence action against AVEFA (herbicidal action in percent)
How it was run: as §2

[16] = test system: VIOTR; assay: Post-emergence action against VIOTR; format: in vivo, Viola tricolor; details: Viola tricolor, 504 h; post-emergence, dosage 80 g/ha
How it was run: as §2

[17] = test system: AVEFA; assay: Pre-emergence action against AVEFA; format: in vivo, Avena fatua; details: Avena fatua, 504 h, dosage 320 g/ha, scored visually after 3 weeks vs untreated controls, read-out: Pre-emergence action against AVEFA (herbicidal activity)
How it was run: as §1

[18] = test system: POLCO; assay: Pre-emergence action against POLCO; format: in vivo, Polygonum convolvulus; details: Fallopia convolvulus, 504 h; Dosage 320 g/ha, pre-emergence
How it was run: as §1

[19] = test system: ALOMY; assay: Post-emergence action against ALOMY; format: in vivo, Alopecurus myosuroides; details: Alopecurus myosuroides, 504 h; Dosage 80 g/ha, post-emergence
How it was run: as §2

Compound	pest or weed control at 320 g/ha [1] [%]	pest or weed control at 320 g/ha [2] [%]	pest or weed control at 320 g/ha [3] [%]	pest or weed control at 80 g/ha [4] [%]	pest or weed control at 320 g/ha [5] [%]	pest or weed control at 80 g/ha [6] [%]	pest or weed control at 320 g/ha [7] [%]	pest or weed control at 320 g/ha [8] [%]	pest or weed control at 80 g/ha [9] [%]	pest or weed control at 80 g/ha [10] [%]	pest or weed control at 80 g/ha [11] [%]	pest or weed control at 80 g/ha [12] [%]	pest or weed control at 320 g/ha [13] [%]	pest or weed control at 80 g/ha [14] [%]	pest or weed control at 80 g/ha [15] [%]	pest or weed control at 80 g/ha [16] [%]	pest or weed control at 320 g/ha [17] [%]	pest or weed control at 320 g/ha [18] [%]	pest or weed control at 80 g/ha [19] [%]
COc1c(C(=O)Nc2nnnn2C)ccc(C(F)(F)F)c1C(=O)C1CC1 [1-50]	100	100	100	80	100	100	100	100	100	90	100	100	100	100	100	100	100	90	80
CSc1c(C(=O)Nc2nnnn2C)ccc(C(F)(F)F)c1C(=O)C1CC1 [1-60]	100	100	100	90	100	100	100	100	90	100	100	100	100	100	100	90	100	100	100
CSc1c(C(=O)Nc2nnnn2C)ccc(C(F)F)c1C(=O)C1CC1 [1-67]	100	100	100	90	100	100	100	100	100	100	100	100	100	100	100	100	80	100	100
CC(=O)c1c(C(F)(F)F)ccc(C(=O)Nc2nnnn2C)c1Cl [1-137, 3-acetyl-2-chloro-N-(1-methyl-1H-tetrazol-5-yl)-4-(trifluoromethyl)benzamide]	100	100	100	90	100	100	100	100	90	90	100	90	100	100	100	100	100	100	80
Cn1nnnc1NC(=O)c1ccc(C(F)(F)F)c(C(=O)C2CC2)c1Cl [1-141]	100	100	100	90	100	100	100	100	100	100	100	100	100	100	100	100	100	80	100
CC(=O)c1c(C(F)F)ccc(C(=O)Nc2nnnn2C)c1Cl [1-164]	100	100	100	90	100	90	100	100	100	100	90	100	100	90	80	100	100	100	90
Cn1nnnc1NC(=O)c1ccc(C(F)F)c(C(=O)C2CC2)c1Cl [1-168]	100	100	100	100	100	100	100	100	100	100	100	100	100	100	100	100	100	90	100
CC(=O)c1c(I)ccc(C(=O)Nc2nnnn2C)c1Cl [1-192]	100	100	100	80	100		100	100	100	100	100			100	80	100	100	80	80
CCn1nnnc1NC(=O)c1ccc(C(F)(F)F)c(C(=O)C2CC2)c1C [2-18, 3-(cyclopropylcarbonyl)-N-(1-ethyl-1H-tetrazol-5-yl)-2-methyl-4-(trifluoromethyl)benzamide]	100	90	100	90	100	100	100	100	100	100	100	80	100	100	100	100	100	90	100
